Experimental data taken from PubChem BioAssay AID248 (DTP/NCI, 2004).
Values joined by “and” are separate entries in the source; they are usually repeats but may differ in a detail not shown here. Equal entries are not always repeated. Toxic doses and inconclusive results are not listed. Rule as the data show it: active = T/C of 150% or more; inactive = T/C below 125%.

System: L1210 leukemia ip in BDF1 mice, survival T/C
Test: NCI In Vivo Anticancer Drug Screen. Data for tumor model L1210 Leukemia (intraperitoneal) in B6D2F1 (BDF1) mice
Settings: endpoint: mean survival time, higher = longer survival
Outline: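 Mice bearing the transplanted tumor received compound or vehicle. Survival of the treated group was divided by that of the vehicle-treated control group to give the ratio.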

[1] = dose: 50.0 mg/kg/injection, schedule: Q01DX009 (ip), vehicle: Klucel (hydroxypropylcellulose) (HPC)
[2] = dose: 100.0 mg/kg/injection, schedule: Q01DX009 (ip), vehicle: Klucel (hydroxypropylcellulose) (HPC)
[3] = dose: 200.0 mg/kg/injection, schedule: Q01DX009 (ip), vehicle: Klucel (hydroxypropylcellulose) (HPC)
[4] = dose: 400.0 mg/kg/injection, schedule: Q01DX009 (ip), vehicle: Klucel (hydroxypropylcellulose) (HPC)
[5] = dose: 50.0 mg/kg/injection, schedule: Q01DX001 (ip), vehicle: saline
[6] = dose: 100.0 mg/kg/injection, schedule: Q01DX001 (ip), vehicle: saline
[7] = dose: 200.0 mg/kg/injection, schedule: Q01DX001 (ip), vehicle: saline
[8] = dose: 400.0 mg/kg/injection, schedule: Q01DX001 (ip), vehicle: saline
[9] = dose: 100.0 mg/kg/injection, schedule: Q04DX003 (ip), vehicle: Klucel (hydroxypropylcellulose) (HPC)
[10] = dose: 200.0 mg/kg/injection, schedule: Q04DX003 (ip), vehicle: Klucel (hydroxypropylcellulose) (HPC)
[11] = dose: 100.0 mg/kg/injection, schedule: Q04DX002 (ip), vehicle: saline with Tween-80
[12] = dose: 100.0 mg/kg/injection, schedule: Q04DX003 (ip), vehicle: saline
[13] = dose: 200.0 mg/kg/injection, schedule: Q04DX003 (ip), vehicle: saline
[14] = dose: 100.0 mg/kg/injection, schedule: Q04DX003 (ip), vehicle: saline with Tween-80
[15] = dose: 200.0 mg/kg/injection, schedule: Q04DX003 (ip), vehicle: saline with Tween-80
[16] = dose: 400.0 mg/kg/injection, schedule: Q04DX003 (ip), vehicle: saline with Tween-80

Measured: T/C

Cc1ccc([N+](=O)[O-])cc1NC(=O)Nc1cccc(C(F)(F)F)c1
inactive: dose: 25.0 mg/kg/injection, schedule: Q01DX009 (ip), vehicle: Klucel (hydroxypropylcellulose) (HPC) 102 % of control | [1] 92 % of control | [2] 86 % of control | [3] 87 % of control | [4] 87 % of control

CN(C)S(=O)(=O)c1ccc(CCc2ccccc2)cc1
inactive: [5] 101 % of control | [6] 95 % of control | [7] 95 % of control | [8] 95 % of control

CCc1c(Nc2ccccc2Cl)[nH]c(N)nc1=S
inactive: dose: 100.0 mg/kg/injection, schedule: Q01DX Z (ip), vehicle: methylcellulose (MC) 97 % of control | dose: 200.0 mg/kg/injection, schedule: Q01DX Z (ip), vehicle: methylcellulose (MC) 97 % of control

CCN(CC)CCCC(C)Nc1cc(/C=C/c2ccc(Cl)cc2)nc2ccc(N(C)C)cc12 (centres undefined)
inactive: dose: 3.12 mg/kg/injection, schedule: Q01DX009 (ip), vehicle: saline with Tween-80 95 % of control | dose: 6.25 mg/kg/injection, schedule: Q01DX009 (ip), vehicle: saline with Tween-80 97 % of control | dose: 12.5 mg/kg/injection, schedule: Q01DX009 (ip), vehicle: saline with Tween-80 95 % of control and 98 % of control

O=S(=O)(Nc1cc(S(=O)(=O)c2ccccc2)c(NS(=O)(=O)c2ccccc2)cc1Cl)c1ccccc1
inactive: [9] 88 % of control | [3] 92 % of control | [10] 88 % of control | [4] 87 % of control

Cn1c(=O)c2ccccc2c2cc([N+](=O)[O-])ccc21
inactive: [1] 93 % of control | [2] 97 % of control | [9] 90 % of control | [3] 97 % of control | [10] 94 % of control

c1ccc(C(NC(c2ccccc2)c2ccccc2)c2ccccc2)cc1
inactive: [5] 91 % of control | [6] 97 % of control | [7] 93 % of control | [8] 97 % of control

Oc1ccc(Cl)cc1/C=N\NC(=S)Nc1ccc2cn[nH]c2c1
inactive: dose: 50.0 mg/kg/injection, schedule: Q01DX001 (ip), vehicle: carboxymethylcellulose (CMC) 102 % of control | dose: 100.0 mg/kg/injection, schedule: Q01DX001 (ip), vehicle: carboxymethylcellulose (CMC) 86 % of control | dose: 200.0 mg/kg/injection, schedule: Q01DX001 (ip), vehicle: carboxymethylcellulose (CMC) 102 % of control

COC(=O)C[CH2][Sn]([Br])([Br])[c]1ccccc1
inactive: [11] 95 % of control

CCCCOc1ccc(CCOC(C)=O)cc1
inactive: dose: 100.0 mg/kg/injection, schedule: Q04DX002 (ip), vehicle: Klucel (hydroxypropylcellulose) (HPC) 112 % of control | dose: 200.0 mg/kg/injection, schedule: Q04DX002 (ip), vehicle: Klucel (hydroxypropylcellulose) (HPC) 108 % of control | dose: 400.0 mg/kg/injection, schedule: Q04DX002 (ip), vehicle: Klucel (hydroxypropylcellulose) (HPC) 104 % of control

O=C(Cn1ccc(=O)[nH]c1=O)c1ccco1
inactive: [12] 102 % of control | [13] 107 % of control | dose: 400.0 mg/kg/injection, schedule: Q04DX003 (ip), vehicle: saline 98 % of control

C=CCNC(=O)Oc1cccc(NC(=O)OC)c1
inactive: [14] 107 % of control | [15] 108 % of control | [16] 105 % of control

O=C1C(Br)=CC(Br)(Br)C=C1Br
inactive: [14] 92 % of control | [15] 95 % of control | [16] 93 % of control

Cc1[nH]c2c(C)ccc(C)c2c(=O)c1Br
inactive: dose: 100.0 mg/kg/injection, schedule: Q01DX001 (ip), vehicle: other 91 % of control | dose: 200.0 mg/kg/injection, schedule: Q01DX001 (ip), vehicle: other 94 % of control | dose: 400.0 mg/kg/injection, schedule: Q01DX001 (ip), vehicle: other 86 % of control

Cc1cccc(Cl)c1NC(=O)c1cccc(C(=O)Nc2c(C)cccc2Cl)c1
inactive: [2] 96 % of control | [3] 94 % of control | [4] 91 % of control

CC(=O)CCC1(C)OC(=O)C(C)C2C1CCC1(C)C(=O)CCC21 (centres undefined)
inactive: dose: 50.0 mg/kg/injection, schedule: Q01DX001 (sc), vehicle: steriod suspending solution 101 % of control | dose: 100.0 mg/kg/injection, schedule: Q01DX001 (sc), vehicle: steriod suspending solution 103 % of control | dose: 200.0 mg/kg/injection, schedule: Q01DX001 (sc), vehicle: steriod suspending solution 113 % of control | dose: 400.0 mg/kg/injection, schedule: Q01DX001 (sc), vehicle: steriod suspending solution 101 % of control

Cc1cccc(C)c1NC(=S)N(C)C
inactive: dose: 25.0 mg/kg/injection, schedule: Q01DX009 (ip), vehicle: saline 101 % of control | dose: 50.0 mg/kg/injection, schedule: Q01DX009 (ip), vehicle: saline 103 % of control | [12] 95 % of control

CN(C)C(=O)c1cccc(COc2ccc(N)cc2Cl)c1
inactive: [12] 96 % of control | [13] 106 % of control

CCCCC(CC)CCC(O)CC(C)C (centres undefined)
inactive: dose: 50.0 mg/kg/injection, schedule: Q04DX003 (ip), vehicle: Klucel (hydroxypropylcellulose) (HPC) 91 % of control | [2] 104 % of control | [9] 92 % of control | [3] 101 % of control | [10] 97 % of control | [4] 89 % of control | dose: 400.0 mg/kg/injection, schedule: Q04DX003 (ip), vehicle: Klucel (hydroxypropylcellulose) (HPC) 96 % of control

C=NN=C(N)N
inactive: dose: 0.38 mg/kg/injection, schedule: Q01DX Z (ip), vehicle: saline 100 % of control | dose: 0.75 mg/kg/injection, schedule: Q01DX Z (ip), vehicle: saline 92 % of control | dose: 3.0 mg/kg/injection, schedule: Q01DX Z (ip), vehicle: saline 87 % of control | dose: 6.0 mg/kg/injection, schedule: Q01DX Z (ip), vehicle: saline 106 % of control | dose: 12.0 mg/kg/injection, schedule: Q01DX Z (ip), vehicle: saline 102 % of control | dose: 15.0 mg/kg/injection, schedule: Q01DX Z (ip), vehicle: saline 100 % of control | dose: 15.0 mg/kg/injection, schedule: Q01DX Z (oral), vehicle: saline 86 % of control | dose: 30.0 mg/kg/injection, schedule: Q01DX Z (ip), vehicle: saline 105 % of control | dose: 30.0 mg/kg/injection, schedule: Q01DX Z (oral), vehicle: saline 92 % of control

CCCCC#CC(=O)OCC
inactive: dose: 100.0 mg/kg/injection, schedule: Q04DX002 (ip), vehicle: saline 97 % of control | dose: 200.0 mg/kg/injection, schedule: Q04DX002 (ip), vehicle: saline 97 % of control | dose: 400.0 mg/kg/injection, schedule: Q04DX002 (ip), vehicle: saline 112 % of control

Cc1ccc(S(=O)(=O)N/N=C/C=C/c2ccccc2)cc1
inactive: [11] 103 % of control | dose: 200.0 mg/kg/injection, schedule: Q04DX002 (ip), vehicle: saline with Tween-80 93 % of control | dose: 400.0 mg/kg/injection, schedule: Q04DX002 (ip), vehicle: saline with Tween-80 93 % of control

Cn1cnc(N)c1/C(N)=N/O
inactive: dose: 6.25 mg/kg/injection, schedule: Q01DX005 (ip), vehicle: saline 100 % of control | dose: 12.5 mg/kg/injection, schedule: Q01DX005 (ip), vehicle: saline 98 % of control | dose: 25.0 mg/kg/injection, schedule: Q01DX005 (ip), vehicle: saline 107 % of control | dose: 50.0 mg/kg/injection, schedule: Q01DX005 (ip), vehicle: saline 91 % of control
